Experimental data as given in US8192962B2, “Processes for detecting toxic substances” (Daikin Industries, Ltd., priority 2001, dated 2012).

System: Metabolism protein genes
Test: DNA chip mRNA expression in yeast, metabolism protein genes (Table 7)
Format: cell-based, Saccharomyces cerevisiae S288C
Description: Yeast (Saccharomyces cerevisiae S288C (α SUC2mal mel gap2 CUP1)) were incubated at 25° C. on YPD medium (yeast extract 1%, polypepton 2%, glucose 2%). One of toxic chemical substances was added to the cells at logarithmic growth phase, and the cells were further incubated for two hours. Cells were cultured without any chemical substance in the same condition, and were used as control. Concentrations of the chemical substances were defined to inhibit the growth of the yeast but not lead to death.
After completion of the incubation, the culture was centrifuged to collect the cells. To the cells, sodium acetate buffer (50 mM sodium acetate, 10 mM EDTA, 1% SDS) was added, and the mixture was shaken at 65° C. for five minutes, followed by returning to room temperature, and obtaining the supernatant, of which the procedures were repeated two times. To the supernatant, ½ amount of a solution of phenol/chloroform was added, and the mixture was centrifuged to give a supernatant, which was added with an equal amount of chloroform, and the mixture was centrifuged to give a supernatant. To the supernatant, an equal amount of isopropanol containing 0.3 M sodium acetate was added, and the mixture was allowed to stand at room temperature for 30 minutes, after which the mixture was centrifuged to give a sediment of the whole RNAs. Seventy % ethanol was added to the sediment, and the mixture was again centrifuged to give a sediment, which was then dried and dissolved in water. mRNA was isolated from the whole RNAs as followings. In view of the fact that a poly A chain is attached to the 3′ terminus of mRNA, a polynucleotide having a poly T structure which was immobilized on the surface of latex beads was used to trap the mRNA, and then the mRNA was washed and eluted with spine column (Oligotex-dT30<Super>mRNA Purification Kit, Takara). Reverse transcription of the mRNA was conducted with a reverse transcriptase (Super Script II Reverse Transcriptase; catalogue No. 18064-014, GibcoBRL) using fluorescence-labeled nucleotides to give cDNAs that were introduced with Cy3-dUTP or Cy5-dUTP during the reverse transcription.
The labeled cDNAs were dissolved in TE buffer (10mM Tris-HCl/1 mM EDTA, pH8.0), and the solution was dropped on the DNA chip containing the whole genes of yeast (DNA Chip Research Inc. Japan) so that the cDNAs were hybridized on the DNA chip at 65° C. for over 12 hours. The fluoresces intensity of the DNA chip was read with a scanner, and the ratio relative to the fluorescence intensity resulting from the absence of chemical substance was estimated as the following, which is shown in Tables 1 to 9: […]

N#Cc1c(Cl)c(Cl)c(Cl)c(C#N)c1Cl [(9), 2,4,5,6-tetrachloro-1,3-benzenedicarbonitrile]
level of expressed mRNA in the presence/in the absence of chemical substance (yeast gene YMR261C): 1.6
The level of expressed mRNA in the presence of chemical substance/The level of expressed mRNA in the absence of chemical substance (yeast gene YMR271C): 8.0
The level of expressed mRNA in the presence of chemical substance/The level of expressed mRNA in the absence of chemical substance (yeast gene YMR296C): 0.4
level of expressed mRNA in the presence/in the absence of chemical substance (yeast gene YMR323W): 0.5
The level of expressed mRNA in the presence of chemical substance/The level of expressed mRNA in the absence of chemical substance (yeast gene YNL012W): 3.3
level of expressed mRNA in the presence/in the absence of chemical substance (yeast gene YNL025C): 1.1
The level of expressed mRNA in the presence of chemical substance/The level of expressed mRNA in the absence of chemical substance (yeast gene YNL037C): 0.6
The level of expressed mRNA in the presence of chemical substance/The level of expressed mRNA in the absence of chemical substance (yeast gene YNL045W): 1.3
The level of expressed mRNA in the presence of chemical substance/The level of expressed mRNA in the absence of chemical substance (yeast gene YNL104C): 1.1
The level of expressed mRNA in the presence of chemical substance/The level of expressed mRNA in the absence of chemical substance (yeast gene YNL106C): 0.7
The level of expressed mRNA in the presence of chemical substance/The level of expressed mRNA in the absence of chemical substance (yeast gene YNL169C): 1.1
The level of expressed mRNA in the presence of chemical substance/The level of expressed mRNA in the absence of chemical substance (yeast gene YNL231C): 2.2
The level of expressed mRNA in the presence of chemical substance/The level of expressed mRNA in the absence of chemical substance (yeast gene YNL264C): 3.3
The level of expressed mRNA in the presence of chemical substance/The level of expressed mRNA in the absence of chemical substance (yeast gene YNL322C): 0.7
The level of expressed mRNA in the presence of chemical substance/The level of expressed mRNA in the absence of chemical substance (yeast gene YNL331C): 42.6
The level of expressed mRNA in the presence of chemical substance/The level of expressed mRNA in the absence of chemical substance (yeast gene YNL332W): 3.3
The level of expressed mRNA in the presence of chemical substance/The level of expressed mRNA in the absence of chemical substance (yeast gene YNR002C): 3.9
The level of expressed mRNA in the presence of chemical substance/The level of expressed mRNA in the absence of chemical substance (yeast gene YNR019W): 1.8
The level of expressed mRNA in the presence of chemical substance/The level of expressed mRNA in the absence of chemical substance (yeast gene YNR033W): 3.6
The level of expressed mRNA in the presence of chemical substance/The level of expressed mRNA in the absence of chemical substance (yeast gene YNR059W): 1.8
The level of expressed mRNA in the presence of chemical substance/The level of expressed mRNA in the absence of chemical substance (yeast gene YNR071C): 3.1
The level of expressed mRNA in the presence of chemical substance/The level of expressed mRNA in the absence of chemical substance (yeast gene YOL058W): 0.1
level of expressed mRNA in the presence/in the absence of chemical substance (yeast gene YOL086C): 0.1
The level of expressed mRNA in the presence of chemical substance/The level of expressed mRNA in the absence of chemical substance (yeast gene YOL126C): 0.8
The level of expressed mRNA in the presence of chemical substance/The level of expressed mRNA in the absence of chemical substance (yeast gene YOL143C): 0.8
The level of expressed mRNA in the presence of chemical substance/The level of expressed mRNA in the absence of chemical substance (yeast gene YOL153C): 2.5
level of expressed mRNA in the presence/in the absence of chemical substance (yeast gene YOL156W): 2.3
The level of expressed mRNA in the presence of chemical substance/The level of expressed mRNA in the absence of chemical substance (yeast gene YOL165C): 46.9
level of expressed mRNA in the presence/in the absence of chemical substance (yeast gene YOR002W): 0.8
level of expressed mRNA in the presence/in the absence of chemical substance (yeast gene YOR085W): 0.5
The level of expressed mRNA in the presence of chemical substance/The level of expressed mRNA in the absence of chemical substance (yeast gene YOR099W): 0.6
level of expressed mRNA in the presence/in the absence of chemical substance (yeast gene YOR108W): 0.4
level of expressed mRNA in the presence/in the absence of chemical substance (yeast gene YOR128C): 0.3
The level of expressed mRNA in the presence of chemical substance/The level of expressed mRNA in the absence of chemical substance (yeast gene YOR130C): 2.0
The level of expressed mRNA in the presence of chemical substance/The level of expressed mRNA in the absence of chemical substance (yeast gene YOR136W): 0.3
level of expressed mRNA in the presence/in the absence of chemical substance (yeast gene YOR142W): 1.1
level of expressed mRNA in the presence/in the absence of chemical substance (yeast gene YOR176W): 1.0
level of expressed mRNA in the presence/in the absence of chemical substance (yeast gene YOR178C): 0.2
The level of expressed mRNA in the presence of chemical substance/The level of expressed mRNA in the absence of chemical substance (yeast gene YOR226C): 1.3
The level of expressed mRNA in the presence of chemical substance/The level of expressed mRNA in the absence of chemical substance (yeast gene YOR336W): 1.7
The level of expressed mRNA in the presence of chemical substance/The level of expressed mRNA in the absence of chemical substance (yeast gene YOR347C): 0.5
The level of expressed mRNA in the presence of chemical substance/The level of expressed mRNA in the absence of chemical substance (yeast gene YOR377W): 3.8
The level of expressed mRNA in the presence of chemical substance/The level of expressed mRNA in the absence of chemical substance (yeast gene YPL017C): 3.0
level of expressed mRNA in the presence/in the absence of chemical substance (yeast gene YPL028W): 1.2
level of expressed mRNA in the presence/in the absence of chemical substance (yeast gene YPL057C): 0.4
level of expressed mRNA in the presence/in the absence of chemical substance (yeast gene YPL135W): 0.5
The level of expressed mRNA in the presence of chemical substance/The level of expressed mRNA in the absence of chemical substance (yeast gene YPR026W): 0.9
level of expressed mRNA in the presence/in the absence of chemical substance (yeast gene YPR113W): 0.4
The level of expressed mRNA in the presence of chemical substance/The level of expressed mRNA in the absence of chemical substance (yeast gene YPR167C): 76.6
level of expressed mRNA in the presence/in the absence of chemical substance (yeast gene YPR183W): 0.9
